In patent publication US11399542B2, “Pesticidally active heterocyclic derivatives with sulfur containing substituents” (SYNGENTA PARTICIPATIONS AG, priority 2017, dated 2022):

Experiments:
Format in all cases: in vivo
[1] = test system: Euschistus heros (Neotropical Brown Stink Bug); assay: Example B9: Activity against Euschistus heros, sprayed soybean leaf; conditions: 120 h, application rate 200 ppm, N2 nymphs on soybean leaf, 5 days after infestation, read-out: effect in at least one of the two categories (mortality or growth inhibition)
Description: Soybean leaf on agar in 24-well microtiter plates were sprayed with aqueous test solutions prepared from 10′000 ppm DMSO stock solutions. After drying the leaf were infested with N2 nymphs. The samples were assessed for mortality and growth inhibition in comparison to untreated samples 5 days after infestation.

[2] = test system: Myzus persicae (Green Peach Aphid); assay: Example B6: Activity against Myzus persicae, systemic via roots of pea seedlings; conditions: 144 h, test rate 24 ppm, pea seedling roots in test solution, 6 days
Description: Roots of pea seedlings infested with an aphid population of mixed ages were placed directly in the aqueous test solutions prepared from 10′000 DMSO stock solutions. The samples were assessed for mortality 6 days after placing seedlings in test solutions.

[3] = test system: Plutella xylostella (Diamond Back Moth); assay: Example B12: Activity against Plutella xylostella, artificial diet, eggs; conditions: 192 h, application rate 200 ppm, eggs on artificial diet, 8 days after infestation, read-out: effect in at least one of the two categories (mortality or growth inhibition)
Description: 24-well microtiter plates with artificial diet were treated with aqueous test solutions prepared from 10′000 ppm DMSO stock solutions by pipetting. After drying, Plutella eggs were pipetted through a plastic stencil onto a gel blotting paper and the plate was closed with it. The samples were assessed for mortality and growth inhibition in comparison to untreated samples 8 days after infestation.

[4] = test system: Myzus persicae (Green Peach Aphid); assay: Example B5: Activity against Myzus persicae, sprayed sunflower leaf discs; conditions: foliar, 144 h, application rate 200 ppm, mixed-age aphids on sunflower leaf discs, 6 days after infestation
Description: Sunflower leaf discs were placed on agar in a 24-well microtiter plate and sprayed with aqueous test solutions prepared from 10′000 ppm DMSO stock solutions. After drying, the leaf discs were infested with an aphid population of mixed ages. The samples were assessed for mortality 6 days after infestation.

[5] = test system: Diabrotica balteata (Corn Root Worm); assay: Example B4: Activity against Diabrotica balteata, sprayed maize sprouts; conditions: 96 h, application rate 200 ppm, L2 larvae on maize sprouts, 4 days after infestation, read-out: effect in at least one of the two categories (mortality or growth inhibition)
Description: Maize sprouts placed onto an agar layer in 24-well microtiter plates were treated with aqueous test solutions prepared from 10′000 ppm DMSO stock solutions by spraying. After drying, the plates were infested with L2 larvae (6 to 10 per well). The samples were assessed for mortality and growth inhibition in comparison to untreated samples 4 days after infestation.

[6] = test system: Spodoptera littoralis (Egyptian Cotton Leaf Worm); assay: Example B1: Activity against Spodoptera littoralis, sprayed cotton leaf discs; conditions: foliar, 72 h, application rate 200 ppm, L1 larvae on cotton leaf discs, 3 days after infestation, read-out: control (at least one of mortality, anti-feedant effect, growth inhibition)
Description: Cotton leaf discs were placed onto agar in 24-well microtiter plates and sprayed with aqueous test solutions prepared from 10′000 ppm DMSO stock solutions. After drying the leaf discs were infested with five L1 larvae. The samples were assessed for mortality, anti-feeding effect, and growth inhibition in comparison to untreated samples 3 days after infestation. Control of Spodoptera littoralis by a test sample is given when at least one of the categories mortality, anti-feedant effect, and growth inhibition is higher than the untreated sample.

Structure (SMILES) | percent effect (mortality or growth inhibition) at 200 ppm [1] [%] | mortality at 24 ppm [2] [%] | percent effect (mortality or growth inhibition) at 200 ppm [3] [%] | mortality at 200 ppm [4] [%] | percent effect (mortality or growth inhibition) at 200 ppm [5] [%] | percent control (mortality, anti-feedant effect or growth inhibition) at 200 ppm [6] [%]
CCSc1cc2c(cc1-c1nc3cc(C(F)(F)F)ncc3n1C)n(C)c(=O)n2C [Compound P10, 5-ethylsulfanyl-1,3-dimethyl-6-[3-methyl-6-(trifluoromethyl)imidazo[4,5-c]pyridin-2-yl]benzimidazol-2-one] | ≥ 80 | – | – | – | – | –
CCS(=O)(=O)c1cc2c(nc1-c1nc3cc([S+]([O-])C(F)(F)F)ccc3n1C)n(C)c(=O)n2C (centres unmarked) [Compound P43, 6-ethylsulfonyl-1,3-dimethyl-5-[1-methyl-5-(trifluoromethyl-sulfinyl)benzimidazol-2-yl]imidazo[4,5-b]pyridin-2-one] | ≥ 80 | ≥ 80 | ≥ 80 | ≥ 80 | – | –
CCS(=O)(=O)c1cc2c(cc1-c1nc3cc(C(F)(F)F)cnc3n1C)n(S(=O)(=O)C1CC1)c(=O)n2C [Compound P13, 1-cyclopropylsulfonyl-5-ethylsulfonyl-3-methyl-6-[3-methyl-6-(trifluoromethyl)imidazo[4,5-b]pyridin-2-yl]benzimidazol-2-one] | – | ≥ 80 | – | ≥ 80 | – | –
CCS(=O)(=O)c1cc2c(cc1-c1nc3cc(SC(F)(F)F)ccc3o1)n(C)c(=O)n2C [Compound P29, 5-ethylsulfonyl-1,3-dimethyl-6-[5-(trifluoromethylsulfanyl)-1,3-benzoxazol-2-yl]benzimidazol-2-one] | ≥ 80 | – | ≥ 80 | – | ≥ 80 | ≥ 80
CCS(=O)(=O)c1cc2c(cc1-c1nc3cc(S(=O)(=O)C(F)(F)F)ccc3o1)n(C)c(=O)n2C [Compound P25, 5-ethylsulfonyl-1,3-dimethyl-6-[5-(trifluoromethylsulfonyl)-1,3-benzoxazol-2-yl]benzimidazol-2-one] | ≥ 80 | – | ≥ 80 | – | ≥ 80 | ≥ 80
CCS(=O)(=O)c1cc2c(cc1-c1nc3cc(C(F)(F)F)nnc3n1C)n(C)c(=O)n2C [Compound P11, 5-ethylsulfonyl-1,3-dimethyl-6-[7-methyl-3-(trifluoromethyl)imidazo[4,5-c]pyridazin-6-yl]benzimidazol-2-one] | ≥ 80 | ≥ 80 | – | ≥ 80 | – | –
CCS(=O)(=O)c1cc2c(cc1-c1nc3cc([S+]([O-])C(F)(F)F)ccc3n1C)n(C)c(=O)n2C (centres unmarked) [Compound P44, 5-ethylsulfonyl-1,3-dimethyl-6-[1-methyl-5-(trifluoromethyl-sulfinyl)benzimidazol-2-yl]benzimidazol-2-one] | ≥ 80 | ≥ 80 | ≥ 80 | ≥ 80 | – | –
CCSc1cc2c(cc1-c1nc3cc(SC(F)(F)F)ccc3n1C)n(C)c(=O)n2C [Compound P42, 5-ethylsulfanyl-1,3-dimethyl-6-[1-methyl-5-(trifluoromethyl-sulfanyl)benzimidazol-2-yl]benzimidazol-2-one] | ≥ 80 | – | ≥ 80 | – | – | –
CCS(=O)(=O)c1cc2c(cc1-c1nc3cc(C(F)(F)F)ccc3o1)n(C)c(=O)n2C [Compound P40, 5-ethylsulfonyl-1,3-dimethyl-6-[5-(trifluoromethyl)-1,3-benzoxazol-2-yl]benzimidazol-2-one] | – | – | ≥ 80 | – | – | –
CCS(=O)(=O)c1cc2c(cc1-c1nc3cc(C(F)(F)F)cnc3n1C)n(C(=O)C1CC1)c(=O)n2C [Compound P20, 1-(cyclopropanecarbonyl)-5-ethylsulfonyl-3-methyl-6-[3-methyl-6-(trifluoromethyl)imidazo[4,5-b]pyridine-2-yl]benzimidazol-2-one] | – | – | – | ≥ 80 | – | –
CCS(=O)(=O)c1cc2c(nc1-c1nc3cc(SC(F)(F)F)ccc3o1)n(C)c(=O)n2C [Compound P35, 6-ethylsulfonyl-1,3-dimethyl-5-[5-(trifluoromethylsulfanyl)-1,3-benzoxazol-2-yl]imidazo[4,5-b]pyridin-2-one] | – | – | ≥ 80 | – | ≥ 80 | ≥ 80
CCS(=O)(=O)c1cc2c(cc1-c1nc3cc(C(F)(F)F)cnc3n1C)n(CSC)c(=O)n2C [Compound P17, 6-ethylsulfonyl-1-methyl-3-(methylsulfanylmethyl)-5-[3-methyl-6-(trifluoromethyl)imidazo[4,5-b]pyridine-2-yl]benzimidazol-2-one] | ≥ 80 | ≥ 80 | – | ≥ 80 | – | –
CCOC(=O)n1c(=O)n(C)c2cc(S(=O)(=O)CC)c(-c3nc4cc(C(F)(F)F)cnc4n3C)cc21 [Compound P23, ethyl 5-ethylsulfonyl-3-methyl-6-[3-methyl-6-(trifluoromethyl)imidazo[4,5-b]pyridine-2-yl]-2-oxo-benzimidazole-1-carboxylate] | – | ≥ 80 | – | ≥ 80 | ≥ 80 | –
CCS(=O)(=O)c1cc2c(cc1-c1nc3cc(S(=O)(=O)C(F)(F)F)ccc3n1C)n(C)c(=O)n2C [Compound P37, 5-ethylsulfonyl-1,3-dimethyl-6-[1-methyl-5-(trifluoromethyl-sulfonyl)benzimidazol-2-yl]benzimidazol-2-one] | ≥ 80 | – | ≥ 80 | ≥ 80 | – | –
CCS(=O)(=O)c1cc2c(cc1-c1nc3cc(C(F)(F)F)cnc3n1C)n(CC(F)(F)F)c(=O)n2C [Compound P19, 6-ethylsulfonyl-1-methyl-5-[3-methyl-6-(trifluoromethyl)imidazo[4,5-b]pyridine-2-yl]-3-(2,2,2-trifluoroethyl) benzimidazol-2-one] | ≥ 80 | ≥ 80 | – | ≥ 80 | ≥ 80 | ≥ 80
CCS(=O)(=O)c1cc2c(nc1-c1nc3cc(S(=O)(=O)C(F)(F)F)ccc3o1)n(C)c(=O)n2C [Compound P26, 6-ethylsulfonyl-1,3-dimethyl-5-[5-(trifluoromethylsulfonyl)-1,3-benzoxazol-2-yl]imidazo[4,5-b]pyridine-2-one] | – | – | ≥ 80 | – | ≥ 80 | ≥ 80
CCSc1cc2c(nc1-c1nc3cc(C(F)(F)F)cnc3n1C)n(C)c(=O)n2C [Compound P24, 6-ethylsulfanyl-1,3-dimethyl-5-[3-methyl-6-(trifluoromethyl)imidazo[4,5-b]pyridine-2-yl]imidazo[4,5-b]pyridine-2-one] | – | – | – | – | ≥ 80 | –
